{
  "source": "patent US5696153A",
  "about": "“Therapeutic regimen for treating patients” (priority 1996, dated 1997)",
  "key": {"[1]": {"system": "SK-N-AS neuroblastoma cells", "experiment": "MTT cytotoxicity, SK-N-AS", "conditions": "for cytotoxicity at 0.01 µg/mL / cytotoxicity at 0.1 µg/mL / cytotoxicity at 1 µg/mL: Homo sapiens, 120 h", "text": "(§1) Cell lines tested included: Glioblastoma cell lines VA-MG-SL and U-373-MG, neuroblastoma cell lines SK-N-AS, SK-N-FI and VA-N-BR, and two primitive neuroectodermal tumor cell lines SK-N-LO and SK-PN-DW at different concentrations. All cell lines were personally established from patients and cultured except U-373-MG (obtained from the American Type Culture Collection, Rockville, […]., USA). The cell lines SK-N-AS, SK-N-FI, SK-N-LO and SK-PN-DW have been reported in several publications and are believed to be representative of their respective lineages.\n(§2) Stock cells in 25 cm^2 flasks were incubated in Dubelco's modified Eagle's medium (Sigma, St. Louis, Mo.) containing 10% fetal bovine serum at 37° C. and 5% CO2 in air for 5 days. Media was renewed on the sixth day and on the seventh day the cells were detached into a single cell suspension with trypsin EDTA, counted and aliquots plated at 3000 to 5000 cells in 0.1 ml fresh media in separate wells of a 96-well microliter plate (Becton-Dickinson Labware, Lincoln Park, N.J.). […] Six replicate wells were used in every experiment as controls and for each test concentration. Each experiment was repeated three separate times. Viability of the cell lines 5 days after exposure to drugs was determined by the MTT assay following published procedures.\n(§3) Cytocidal activity was defined when the number of cells or the MTT surrogate optical density value was less than the initial inoculum. This is usually the case when ≥80% toxicity is recorded under these in vitro conditions.\n(§4) Differences were considered to be statistically significant for a p-value of 0.05 or less."}, "[2]": {"system": "SK-N-LO primitive neuroectodermal tumor cells", "experiment": "MTT cytotoxicity, SK-N-LO", "conditions": "for cytotoxicity at 0.01 µg/mL / cytotoxicity at 0.1 µg/mL / cytotoxicity at 1 µg/mL: Homo sapiens, 120 h", "text": "as §1, §2, §3, §4"}, "[3]": {"experiment": "Toxicity in nude mice (wasting, weight loss)", "type": "in vivo"}, "[4]": {"conditions": "40 mg/kg single IP", "quoted_text": "Five nude mice were maintained in each cage with a fiberglass bonnet in a clean isolation room. All cages and food were sterilized prior to use. Female nude mice were inoculated subcutaneously with 3×10^6 human neuroblastoma (SK-N-AS) tumor cells. Between 8-16 days, tumor growth was evident and measured.\nFollowing sacrifice by cervical dislocation, tumor and normal tissues were immediately removed, sonicated, diluted in buffer (PBS containing 0.25% BSA, 0.05%, Tween 20, Methanol 20%, and Sodium Azide 2%). […] Tissue protein was determined using the BioRad kit (BioRad, 3300 Regatta Boulevard, Richmond, Calif. 94804)."}, "[5]": {"experiment": "clinical", "parameters": "species or system human patients", "conditions": "human, in vivo, iv", "text": "Characteristics of the group of twenty were: male (5); female (15); median age 44 (17-81); ECOG-PS 1 (0-3). All were previously treated with chemotherapy and radiation for cancers of the breast (5), ovarian (2), brain (3), prostate (1), head and neck (4), bone (2), leiomyosarcoma (2), and melanoma (1)."}, "[6]": {"experiment": "Study B: taxol tissue levels after three IP injections at 4 day intervals", "type": "in vivo, nude mice", "conditions": "seven days after third injection"}},
  "note": "“Also recorded” adds a separate entry of the source. Read-outs that look alike come from different tables or passages of the source.",
  "data": [
    {"smiles": "CC(=O)O[C@H]1C(=O)[C@@]2(C)[C@H]([C@H](OC(=O)c3ccccc3)[C@]3(O)C[C@H](OC(=O)[C@H](O)[C@@H](NC(=O)c4ccccc4)c4ccccc4)C(C)=C1C3(C)C)[C@]1(OC(C)=O)CO[C@@H]1C[C@@H]2O", "note": "[taxol]", "values": [
      {"measurement": "cytotoxicity compared with a 1 hour exposure", "setting": "[1]; 0.01 μg/ml, 24 hour", "result": "enhanced cytotoxicity"},
      {"measurement": "toxicity in words", "setting": "[1]; 0.01 μg/ml, ≥1 hour exposure", "result": "toxic"},
      {"measurement": "resilience of cell line to taxol", "setting": "[1]; 0.01-1.0 μg/ml", "result": "least resilient of the cell lines"},
      {"measurement": "cytotoxicity at 0.01 µg/mL", "setting": "[1]; read-out: Taxol toxicity, SK-N-AS, 0.01 μg/ml x 1 h, 5 days after exposure", "result": 15, "unit": "%"},
      {"measurement": "cytotoxicity at 0.01 µg/mL", "setting": "[1]; read-out: Taxol toxicity, SK-N-AS, 0.01 μg/ml x 4 h, 5 days after exposure", "result": 25, "unit": "%"},
      {"measurement": "cytotoxicity at 0.01 µg/mL", "setting": "[1]; read-out: Taxol toxicity, SK-N-AS, 0.01 μg/ml x 24 h, 5 days after exposure, p < 0.05 vs 1 h", "result": 50, "unit": "%"},
      {"measurement": "cytotoxicity at 0.1 µg/mL", "setting": "[1]; read-out: Taxol toxicity, SK-N-AS, 0.1 μg/ml x 1 h, 5 days after exposure", "result": 65, "unit": "%"},
      {"measurement": "cytotoxicity at 0.1 µg/mL", "setting": "[1]; read-out: Taxol toxicity, SK-N-AS, 0.1 μg/ml x 4 h, 5 days after exposure", "result": 67, "unit": "%"},
      {"measurement": "cytotoxicity at 0.1 µg/mL", "setting": "[1]; read-out: Taxol toxicity, SK-N-AS, 0.1 μg/ml x 24 h, 5 days after exposure, p < 0.05 vs 1 h", "result": 81, "unit": "%"},
      {"measurement": "cytotoxicity at 1 µg/mL", "setting": "[1]; read-out: Taxol toxicity, SK-N-AS, 1.0 μg/ml x 1 h, 5 days after exposure", "result": 87, "unit": "%"},
      {"measurement": "cytotoxicity at 1 µg/mL", "setting": "[1]; read-out: Taxol toxicity, SK-N-AS, 1.0 μg/ml x 4 h, 5 days after exposure", "result": 82, "unit": "%"},
      {"measurement": "cytotoxicity at 1 µg/mL", "setting": "[1]; read-out: Taxol toxicity, SK-N-AS, 1.0 μg/ml x 24 h, 5 days after exposure", "result": 89, "unit": "%"},
      {"measurement": "cytotoxicity at 0.01 µg/mL", "setting": "[2]; read-out: Taxol toxicity, SK-N-LO, 0.01 μg/ml x 1 h, 5 days after exposure", "result": 0, "unit": "%"},
      {"measurement": "cytotoxicity at 0.01 µg/mL", "setting": "[2]; read-out: Taxol toxicity, SK-N-LO, 0.01 μg/ml x 4 h, 5 days after exposure", "result": 0, "unit": "%"},
      {"measurement": "cytotoxicity at 0.01 µg/mL", "setting": "[2]; read-out: Taxol toxicity, SK-N-LO, 0.01 μg/ml x 24 h, 5 days after exposure, p < 0.05 vs 1 h", "result": 17, "unit": "%"},
      {"measurement": "cytotoxicity at 0.1 µg/mL", "setting": "[2]; read-out: Taxol toxicity, SK-N-LO, 0.1 μg/ml x 1 h, 5 days after exposure", "result": 43, "unit": "%"},
      {"measurement": "cytotoxicity at 0.1 µg/mL", "setting": "[2]; read-out: Taxol toxicity, SK-N-LO, 0.1 μg/ml x 4 h, 5 days after exposure", "result": 56, "unit": "%"},
      {"measurement": "cytotoxicity at 0.1 µg/mL", "setting": "[2]; read-out: Taxol toxicity, SK-N-LO, 0.1 μg/ml x 24 h, 5 days after exposure", "result": 47, "unit": "%"},
      {"measurement": "cytotoxicity at 1 µg/mL", "setting": "[2]; read-out: Taxol toxicity, SK-N-LO, 1.0 μg/ml x 1 h, 5 days after exposure", "result": 54, "unit": "%"},
      {"measurement": "cytotoxicity at 1 µg/mL", "setting": "[2]; read-out: Taxol toxicity, SK-N-LO, 1.0 μg/ml x 4 h, 5 days after exposure", "result": 58, "unit": "%"},
      {"measurement": "cytotoxicity at 1 µg/mL", "setting": "[2]; read-out: Taxol toxicity, SK-N-LO, 1.0 μg/ml x 24 h, 5 days after exposure", "result": 57, "unit": "%"},
      {"measurement": "cytotoxicity compared with a 1 hour exposure", "setting": "[2]; SK-N-LO, 0.01 μg/ml, 24 hour", "result": "enhanced cytotoxicity"},
      {"measurement": "toxicity in words", "setting": "[2]; SK-N-LO, 0.01 μg/ml, 24 hour exposure", "result": "toxic"},
      {"measurement": "toxicity of dosage", "setting": "[3]; 10 mg/kg IP Q4D×3, neuroblastoma tumor bearing nude mice", "result": "non-toxic dosage"},
      {"measurement": "toxicity of schedule", "setting": "[3]; 15 mg/kg every 4 hours×3 in one day", "result": "equally non-toxic"},
      {"measurement": "toxicity of schedule", "setting": "[3]; 15 mg/kg every 4 days×3", "result": "equally non-toxic"},
      {"measurement": "indications of toxicity (wasting or weight loss)", "setting": "[3]; Study B, 15 mg/kg IP Q4D×3", "result": "no indications of toxicity"},
      {"measurement": "Tumor size", "setting": "[4]; day 1", "result": 378, "unit": "mm^2"},
      {"measurement": "Tumor size", "setting": "[4]; day 2", "result": 480, "unit": "mm^2"},
      {"measurement": "Tumor size", "setting": "[4]; day 3", "result": 208, "unit": "mm^2"},
      {"measurement": "Tumor size", "setting": "[4]; day 4", "result": 80, "unit": "mm^2"},
      {"measurement": "Tumor size", "setting": "[4]; day 5", "result": 252, "unit": "mm^2"},
      {"measurement": "Tumor size", "setting": "[4]; day 6", "result": 154, "unit": "mm^2"},
      {"measurement": "Kp", "setting": "[5]", "result": 0.01},
      {"measurement": "peripheral blood CMAX", "setting": "[5]", "result": 1400, "unit": "ng/mL"},
      {"measurement": "Cmax", "setting": "[5]; 0-40 ng/ml CMAX (so in the source)", "result": "< 40", "unit": "ng/mL"},
      {"measurement": "half-life", "setting": "[5]; T1/2 α", "result": 15, "unit": "min"},
      {"measurement": "half-life", "setting": "[5]; distributive phase T1/2 α", "result": "7 to 20", "unit": "min"},
      {"measurement": "Cmax", "setting": "[5]; peripheral blood CMAX", "result": 1240, "unit": "ng/mL"},
      {"measurement": "concentration in normal tissues, treated vs controls", "setting": "10 mg/kg IP Q4D×3, then single 20 mg/kg IP", "result": "consistently greater than in nontreated controls; also recorded: consistently greater than in Group A"},
      {"measurement": "concentration in tumor vs liver, kidney or lung", "setting": "after single 20 mg/kg IP", "result": "usually greater in tumor tissue compared to liver, kidney or lung"},
      {"measurement": "distribution in tumor tissue compared to liver, kidney or lung", "setting": "mouse, in vivo", "result": "four to thirty"},
      {"measurement": "Taxol, tumor", "setting": "treated (Cages II, III): 10 mg/kg Q4D×3, then 20 mg/kg IP 24 h prior, individual mice", "result": 195.24, "unit": "ng/mg Protein"},
      {"measurement": "taxol in the colon", "setting": "[6]", "result": "Substantial amounts"},
      {"measurement": "taxol in tumor and organs", "setting": "[6]", "result": "detectable in tumor and organs"}
    ]}
  ]
}
